Experimental data published in patent publication US9730447B2, “Fungicidal amides” (E I DU PONT DE NEMOURS AND COMPANY, priority 2013, dated 2017).
Marks after values point to notes of the source that are not given here.

Assays:
Type in all cases: in vivo
Botrytis cinerea = experiment: Test A: preventive spray on tomato seedlings, Botrytis cinerea (gray mold), visual disease rating; settings: 96 h, 100 = 100% disease control, 0 = no control relative to controls, unmarked values
Description: (§1) General protocol for preparing test suspensions for Tests A-E: the test compounds were first dissolved in acetone in an amount equal to 3% of the final volume and then suspended at the desired concentration (in ppm) in acetone and purified water (50/50 mix by volume) containing 250 ppm of the surfactant Trem® 014 (polyhydric alcohol esters). The resulting test suspensions were then used in Tests A-E. Compounds were sprayed with either a 40 ppm or 10 ppm (*) test suspension to the point of run-off on the test plants which is the equivalent of a rate of 160 g ai/ha or 40 g ai/ha, respectively.
The test suspension was sprayed to the point of run-off on tomato seedlings. The following day the seedlings were inoculated with a spore suspension of Botrytis cinerea (the causal agent of gray mold on many crops) and incubated in a saturated atmosphere at 20° C. for 48 h, and moved to a growth chamber at 27° C. for 2 days, after which time visual disease ratings were made.
(§2) Results for Tests A-E are given in Table A. In the Table, a rating of 100 indicates 100% disease control and a rating of 0 indicates no disease control (relative to the controls). A dash (-) indicates no test results.

Septoria tritici = experiment: Test C: preventive spray on wheat seedlings, Septoria tritici (wheat leaf blotch), visual disease rating
Description: as §1
(§3) The test suspension was sprayed to the point of run-off on wheat seedlings. The following day the seedlings were inoculated with a spore suspension of Septoria tritici (the causal agent of wheat leaf blotch) and incubated in a saturated atmosphere at 24° C. for 48 h, and then moved to a growth chamber at 20° C. for 21 days, after which time visual disease ratings were made.
as §2

[1] = tested on: Puccinia recondite f. sp. tritici; experiment: Test D: preventive spray on wheat seedlings, Puccinia recondite f. sp. tritici (wheat leaf rust), visual disease rating
Description: as §1
as §3, with “Puccinia recondite f. sp. tritici;” for “Septoria tritici”, “rust)” for “blotch)”, “20°” for “24°”, “24” for “48”, “6” for “21”
as §2

[2] = tested on: Erysiphe graminis f. sp. tritici; experiment: Test E: preventive spray on wheat seedlings, Erysiphe graminis f. sp. tritici (wheat powdery mildew), visual disease rating
Description: as §1
The test suspension was sprayed to the point of run-off on wheat seedlings. The following day the seedlings were inoculated with a spore dust of Erysiphe graminis f. sp. tritici, (the causal agent of wheat powdery mildew) and incubated in a growth chamber at 20° C. for 8 days, after which time visual disease ratings were made.
as §2

[3] = tested on: Stagonospora nodorum (also known as Septoria nodorum); experiment: Test B: preventive spray on wheat seedlings, Stagonospora nodorum (wheat glume blotch), visual disease rating
Description: as §1
The test suspension was sprayed to the point of run-off on wheat seedlings. The following day the seedlings were inoculated with a spore suspension of Stagonospora nodorum (also known as Septoria nodorum; the causal agent of wheat glume blotch) and incubated in a saturated atmosphere at 20° C. for 48 h, and then moved to a growth chamber at 20° C. for 6 days, after which time visual disease ratings were made.
as §2

[4] = values marked with asterisk (*), meaning not given
[5] = 100 = 100% disease control, 0 = no control, unmarked values

## O=C(Nc1ccccc1-c1cnc(-n2cc(Cl)cn2)c(Cl)c1)c1ncccc1C(F)(F)F [Compound 61, N-[2-[5-chloro-6-[4-chloro-1H-pyrazol-1-yl]-3-pyridinyl]phenyl]-3-(trifluoromethyl)-2-pyridinecarboxamide]
Botrytis cinerea
  pest or weed control at 40 µg/mL, 160 g/ha: 41%

## O=C(Nc1ccccc1-c1cnc(-n2ccc(C(F)(F)F)n2)c(Cl)c1)c1sccc1F [compound 176]
Septoria tritici; [4]
  Test C disease control rating: 93* %
[1]; [4]
  Test D disease control rating: 0* %
[2]; [4]
  Test E disease control rating: 0* %
[3]; [4]
  Test B disease control rating: 0* %

## O=C(NCCc1ncc(-n2cc(Br)cn2)cn1)c1ncccc1C(F)(F)F [Compound 180]
Septoria tritici; [4]
  Test C disease control rating: 2* %
[1]; [4]
  Test D disease control rating: 0* %
[2]; [4]
  Test E disease control rating: 0* %
[3]; [5]
  Test B disease control rating: 0%

## Cc1scnc1C(=O)Nc1ccccc1-c1cnc(-n2ccc(C(F)(F)F)n2)c(Cl)c1 [compound 170]
Septoria tritici; [4]
  Test C disease control rating: 74* %
[1]; [4]
  Test D disease control rating: 0* %
[2]; [4]
  Test E disease control rating: 0* %
[3]; [4]
  Test B disease control rating: 50* %

## CC1=C(C(=O)Nc2ccccc2-c2cnc(-n3ccc(C(F)(F)F)n3)c(F)c2)SCCO1 [compound 113]
Septoria tritici; [5]
  Test C disease control rating: 77%
[1]; [5]
  Test D disease control rating: 97%
[2]; [5]
  Test E disease control rating: 0%
[3]; [5]
  Test B disease control rating: 0%

## COc1cccc(-c2cnn(-c3ccc(-c4ccccc4NC(=O)c4ncccc4C(F)(F)F)cn3)c2)c1 [compound 16]
Septoria tritici; [5]
  Test C disease control rating: 100%
[1]; [5]
  Test D disease control rating: 99%
[2]; [5]
  Test E disease control rating: 69%
[3]; [5]
  Test B disease control rating: 100%

## Cc1ccsc1C(=O)Nc1ccccc1-c1cnc(-n2ccc(C(F)(F)F)n2)c(F)c1 [compound 152]
Septoria tritici; [5]
  Test C disease control rating: 99%
[1]; [5]
  Test D disease control rating: 100%
[2]; [5]
  Test E disease control rating: 99%
[3]; [5]
  Test B disease control rating: 99%

## O=C(Nc1ccccc1-c1cnc(-n2ccc(C(F)F)n2)c(F)c1)c1ncccc1C(F)(F)F [compound 161]
Septoria tritici; [5]
  Test C disease control rating: 95%
[1]; [5]
  Test D disease control rating: 100%
[2]; [5]
  Test E disease control rating: 99%
[3]; [5]
  Test B disease control rating: 100%

## CC1(C(=O)O)CC(c2ccc(-c3ccccc3NC(=O)c3ncccc3C(F)(F)F)cn2)=NO1 (racemic) [compound 146]
Septoria tritici; [5]
  Test C disease control rating: 1%
[1]; [5]
  Test D disease control rating: 0%
[2]; [5]
  Test E disease control rating: 0%
[3]; [5]
  Test B disease control rating: 0%

## O=C(NCCc1ncc(-n2ccc(Cl)n2)cn1)c1ncccc1C(F)(F)F [Compound 181]
Septoria tritici; [4]
  Test C disease control rating: 20* %
[1]; [4]
  Test D disease control rating: 9* %
[2]; [4]
  Test E disease control rating: 0* %
[3]; [4]
  Test B disease control rating: 64* %

## O=C(Nc1ccccc1-c1cnc(-n2ccc(C(F)(F)F)n2)cn1)c1ncccc1C(F)(F)F [Compound 3, 3-(trifluoromethyl)-N-[2-[5-[3-(trifluoromethyl)-1H-pyrazol-1-yl]-2-pyrazinyl]phenyl]-2-pyridinecarboxamide]
Botrytis cinerea
  pest or weed control at 40 µg/mL, 160 g/ha: 0%

## O=C(Nc1ccccc1-c1ccc(-n2cccn2)nc1)c1ncccc1C(F)(F)F [compound 12]
Septoria tritici; [5]
  Test C disease control rating: 100%
[1]; [5]
  Test D disease control rating: 99%
[2]; [5]
  Test E disease control rating: 98%
[3]; [5]
  Test B disease control rating: 100%

## O=C(Nc1ccccc1-c1cnc(-n2ccc(C(F)(F)F)n2)c(Cl)c1)c1ncccc1C(F)(F)F [Compound 34, N-[2-[5-chloro-6-[3-(trifluoromethyl)-1H-pyrazol-1-yl]-3-pyridinyl]phenyl]-3-(trifluoromethyl)-2-pyridinecarboxamide]
Botrytis cinerea
  pest or weed control at 40 µg/mL, 160 g/ha: 96%

## O=C(Nc1ccccc1-c1cnc(-n2ccc(C(F)(F)F)n2)c(Cl)c1)c1scnc1C(F)(F)F [compound 165]
Septoria tritici; [4]
  Test C disease control rating: 99* %
[1]; [4]
  Test D disease control rating: 98* %
[2]; [4]
  Test E disease control rating: 87* %
[3]; [5]
  Test B disease control rating: 0%

## O=C(Nc1ccccc1-c1cnc(-n2ccc(C(F)(F)F)n2)c(Cl)c1)c1sccc1Cl [compound 168]
Septoria tritici; [4]
  Test C disease control rating: 95* %
[1]; [4]
  Test D disease control rating: 99* %
[2]; [4]
  Test E disease control rating: 64* %
[3]; [4]
  Test B disease control rating: 0* %

## Cc1cnn(-c2cnc(CCNC(=O)c3ncccc3C(F)(F)F)nc2)c1 [Compound 182]
Septoria tritici; [4]
  Test C disease control rating: 9* %
[1]; [4]
  Test D disease control rating: 0* %
[2]; [4]
  Test E disease control rating: 0* %
[3]; [5]
  Test B disease control rating: 0%

## Cn1cc(C(=O)Nc2ccccc2-c2cnc(-n3ccc(C(F)(F)F)n3)c(F)c2)c(C(F)F)n1 [Compound 68, 3-(difluoromethyl)-N-[2-[5-fluoro-6-[3-(trifluoromethyl)-1H-pyrazol-1-yl]-3-pyridinyl]phenyl]-1-methyl-1H-pyrazole-4-carboxamide]
Botrytis cinerea
  pest or weed control at 40 µg/mL, 160 g/ha: 94%

## CC1=C(C(=O)Nc2ccccc2-c2cnc(-n3ccc(C(F)(F)F)n3)c(F)c2)S(=O)(=O)CCO1 [compound 114]
Septoria tritici; [5]
  Test C disease control rating: 84%
[1]; [5]
  Test D disease control rating: 100%
[2]; [5]
  Test E disease control rating: 64%
[3]; [5]
  Test B disease control rating: 0%

## Cn1cc(C(=O)Nc2ccccc2-c2ccc(-n3cccn3)nc2)c(C(F)F)n1 [compound 15]
Septoria tritici; [5]
  Test C disease control rating: 100%
[1]; [5]
  Test D disease control rating: 100%
[2]; [5]
  Test E disease control rating: 97%
[3]; [5]
  Test B disease control rating: 99%

## Cc1nc(C(F)(F)F)c(C(=O)Nc2ccccc2-c2cnc(-n3ccc(C(F)(F)F)n3)c(F)c2)s1 [compound 151]
Septoria tritici; [5]
  Test C disease control rating: 98%
[1]; [5]
  Test D disease control rating: 100%
[2]; [5]
  Test E disease control rating: 98%
[3]; [5]
  Test B disease control rating: 0%

## O=C(Nc1ccccc1-c1cnc(-n2ccc(C(F)(F)F)n2)c(F)c1)c1nccnc1C(F)(F)F [compound 115]
Septoria tritici; [5]
  Test C disease control rating: 98%
[1]; [5]
  Test D disease control rating: 100%
[2]; [5]
  Test E disease control rating: 100%
[3]; [5]
  Test B disease control rating: 100%

## O=C(Nc1ccccc1-c1cnc(-n2ccc(C(F)(F)F)n2)c(Cl)c1)c1sccc1C(F)(F)F [compound 167]
Septoria tritici; [4]
  Test C disease control rating: 100* %
[1]; [4]
  Test D disease control rating: 100* %
[2]; [4]
  Test E disease control rating: 94* %
[3]; [4]
  Test B disease control rating: 98* %

## O=C(Nc1ccccc1-c1cnc(-n2ccc(C(F)(F)F)n2)c(F)c1)c1ncsc1C(F)(F)F [compound 126]
Septoria tritici; [5]
  Test C disease control rating: 99%
[1]; [5]
  Test D disease control rating: 100%
[2]; [5]
  Test E disease control rating: 99%
[3]; [5]
  Test B disease control rating: 99%

## O=C(Nc1ccccc1-c1cnc(-n2ccc(C(F)(F)F)n2)c(Cl)c1)c1ccccc1C(F)F [compound 132]
Septoria tritici; [5]
  Test C disease control rating: 99%
[1]; [5]
  Test D disease control rating: 99%
[2]; [5]
  Test E disease control rating: 98%
[3]; [5]
  Test B disease control rating: 0%

## CCOC(=O)C1CC(c2ccc(-c3ccccc3NC(=O)c3ncccc3C(F)(F)F)cn2)=NO1 (racemic) [compound 145]
Septoria tritici; [5]
  Test C disease control rating: 26%
[1]; [5]
  Test D disease control rating: 0%
[2]; [5]
  Test E disease control rating: 0%
[3]; [5]
  Test B disease control rating: 0%

## CC(Cc1ccc(-n2ccc(C(F)(F)F)n2)nc1)NC(=O)c1ncccc1C(F)(F)F (stereo not drawn) [Compound 84, N-[1-methyl-2-[6-[3-(trifluoromethyl)-1H-pyrazol-1-yl]-3-pyridinyl]ethyl]-3-(trifluoromethyl)-2-pyridinecarboxamide]
Botrytis cinerea
  pest or weed control at 40 µg/mL, 160 g/ha: 66%

## CC(Cc1ccc(-n2ccc(C(F)(F)F)n2)nc1)NC(=O)c1cn(C)nc1C(F)F (stereo not drawn) [Compound 83, 3-(difluoromethyl)-1-methyl-N-[1-methyl-2-[6-[3-(trifluoromethyl)-1H-pyrazol-1-yl]-3-pyridinyl]ethyl]-1H-pyrazole-4-carboxamide]
Botrytis cinerea
  pest or weed control at 40 µg/mL, 160 g/ha: 99%

## O=C(Nc1ccccc1-c1ccc(-n2ccc(C(F)(F)F)n2)nn1)c1ncccc1C(F)(F)F [Compound 59, 3-(trifluoromethyl)-N-[2-[6-[3-(trifluoromethyl)-1H-pyrazol-1-yl]-3-pyridazinyl]phenyl]-2-pyridinecarboxamide]
Botrytis cinerea
  pest or weed control at 40 µg/mL, 160 g/ha: 0%

## Cc1sccc1C(=O)Nc1ccccc1-c1cnc(-n2ccc(C(F)(F)F)n2)c(F)c1 [compound 163]
Septoria tritici; [5]
  Test C disease control rating: 97%
[1]; [5]
  Test D disease control rating: 100%
[2]; [5]
  Test E disease control rating: 96%
[3]; [5]
  Test B disease control rating: 79%

## COc1cccc(C2CC(c3ccc(-c4ccccc4NC(=O)c4ncccc4C(F)(F)F)cn3)=NN2C)c1 (stereo not drawn) [compound 130]
Septoria tritici; [5]
  Test C disease control rating: 89%
[1]; [5]
  Test D disease control rating: 97%
[2]; [5]
  Test E disease control rating: 69%
[3]; [5]
  Test B disease control rating: 11%
